Type in all cases: cell-based, human
One assay deals with PANC-1 cells. The experiment in a line: CCK-8 anti-proliferative assay, PANC-1. Particulars: Homo sapiens, PANC-1; Table 11; co-incubated 48 h; read-out: Anti-proliferative activity (IC50 ± standard deviation) PANC-1. The method in brief: (§1)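 Growth inhibition was measured by CCK-8 in human cells seeded at 5,000 per well and treated at 70% confluency. Compound exposure spanned 1, 2, 4, 6, 8, 12, 16, 24 and 30 μM for designated durations at 37° C. Percent inhibition against vehicle control at OD 450 nm yielded median inhibitory concentrations.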

Assay [1] deals with immortalized ureteral epithelial cells (SV-HUC-1). The experiment in a line: CCK-8 anti-proliferative assay, normal cells SV-HUC-1. Conditions: Homo sapiens, SV-HUC1; Table 13; normal cells; co-incubated 48 h; read-out: Anti-proliferative activity (IC50 ± standard deviation) SV-HUC-1. The method in brief: (§2)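 Dose range 1–30 μM final (nine levels, n=3), added at 70% confluency to 5,000 cells/well cultured at 37° C., 5% CO2. CCK-8 incubation 1-4 h depending on cell type.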

The test system of another assay is T24 cells. In words: CCK-8 anti-proliferative assay, T24. Conditions: Homo sapiens, T-24; Table 10; co-incubated 48 h; read-out: Anti-proliferative activity (IC50 ± standard deviation) T24. The method in brief:
as §1
For orientation: Tetrazolium assays rely on reduction of a dye to a coloured formazan, in cell work by metabolically active cells.

The next assay relates to HeLa cells. The experiment in a line: CCK-8 anti-proliferative assay, HeLa. Particulars: Homo sapiens, HeLa; Table 12; co-incubated 48 h; read-out: Anti-proliferative activity (IC50 ± standard deviation) HeLa. The method in brief:
as §2

The next assay deals with UM-UC-3 cells. The experiment in a line: CCK-8 anti-proliferative assay, UM-UC-3. Particulars: Homo sapiens, UMUC3; Table 10; co-incubated 48 h; read-out: Anti-proliferative activity (IC50 ± standard deviation) UM-UC-3. The gist of the method:
as §2

The test system of assay [2] is embryonic lung fibroblasts (WI-38). The experiment in a line: CCK-8 anti-proliferative assay, normal cells WI-38. Particulars: Homo sapiens, WI-38, Table 13, co-incubated 48 h, read-out: Anti-proliferative activity (IC50 ± standard deviation) WI-38. The gist of the method:
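Logarithmic-phase cells are plated at 5,000 cells per well and incubated at 37° C. with 5% CO2. At 70% confluency, compound is added at nine final concentrations from 1 to 30 μM. After exposure, CCK-8 is added and OD at 450 nm measured to calculate IC50.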

A further assay relates to MCF-7 cells. The experiment in a line: CCK-8 anti-proliferative assay, MCF-7. Conditions: Homo sapiens, MCF7; Table 12; co-incubated 48 h; read-out: Anti-proliferative activity (IC50 ± standard deviation) MCF-7. The method in brief: as §2
The subject of a further assay is 143B cells. The experiment in a line: CCK-8 anti-proliferative assay, 143B. Conditions: Homo sapiens, 143B; Table 11; co-incubated 48 h; read-out: Anti-proliferative activity (IC50 ± standard deviation) 143B. The gist of the method: as §1
A further assay deals with SK-OV-3 cells. In words: CCK-8 anti-proliferative assay, SK-OV-3. Particulars: Homo sapiens, SK-OV-3; Table 12; co-incubated 48 h; read-out: Anti-proliferative activity (IC50 ± standard deviation) SK-OV-3. The method in brief:
as §2

In a further assay the test system is MG-63 cells. The experiment in a line: CCK-8 anti-proliferative assay, MG-63. Particulars: Homo sapiens, MG-63; Table 11; co-incubated 48 h; read-out: Anti-proliferative activity (IC50 ± standard deviation) MG-63. The method in brief:
as §1

Another assay relates to BxPC-3 cells. In words: CCK-8 anti-proliferative assay, BxPC-3. Particulars: Homo sapiens, BXPC-3; Table 11; co-incubated 48 h; read-out: Anti-proliferative activity (IC50 ± standard deviation) BxPC-3. The method in brief:
as §1

A further assay relates to J82 cells. The experiment in a line: CCK-8 anti-proliferative assay, J82. Conditions: Homo sapiens, J82; Table 10; co-incubated 48 h; read-out: Anti-proliferative activity (IC50 ± standard deviation) J82. The gist of the method:
as §2

The next assay deals with A549 cells. The experiment in a line: CCK-8 anti-proliferative assay, A549. Conditions: Homo sapiens, A549; Table 13; co-incubated 48 h; read-out: Anti-proliferative activity (IC50 ± standard deviation) A549. The method in brief:
as §2

The subject of the next assay is 5637 cells. The experiment in a line: CCK-8 anti-proliferative assay, 5637. Conditions: Homo sapiens; Table 10; co-incubated 48 h; read-out: Anti-proliferative activity (IC50 ± standard deviation) 5637. The gist of the method:
as §2

The subject of another assay is Hep G2 cells. The experiment in a line: CCK-8 anti-proliferative assay, Hep G2. Particulars: Homo sapiens, HepG2; Table 12; co-incubated 48 h; read-out: Anti-proliferative activity (IC50 ± standard deviation) Hep G2. The gist of the method:
as §1

For the molecule `COc1ccccc1NC(=O)Nc1cccc(CNc2ncnc3cc(OC)c(OCCCCCCN4CCC(CN5CCN(c6ccccn6)CC5)CC4)cc23)c1` [Compound 8-2k, N-(3-(((7-methoxy-6-((6-(4-((4-(pyridin-2-yl)piperazin-1-yl)methyl)piperidin-1-yl)hexyl)oxy)quinazolin-4-yl)amino)methyl)phenyl)-N′-(2-methoxyphenyl)urea], the IC50 in the assay on PANC-1 cells was 15.9 ± 0.94 µM; in [1], 13 ± 0.88 µM; in the assay with T24 cells, 5.34 ± 0.27 µM; with HeLa cells, 5.51 ± 0.49 µM; in the assay on UM-UC-3 cells it was 7.19 ± 0.52 µM; in assay [2] it was 11.2 ± 0.65 µM. The 50% inhibitory concentration (IC50) came out at 6.68 ± 0.79 µM in the assay on MCF-7 cells; 6.08 ± 0.37 µM in the assay with 143B cells; 6.32 ± 0.56 µM with SK-OV-3 cells; 6.38 ± 0.43 µM with MG-63 cells; 7.11 ± 0.79 µM in the assay on BxPC-3 cells; 5.68 ± 0.42 µM in the assay on J82 cells. Moreover, the results for the IC50 with A549 cells, in the assay with 5637 cells and in the assay with Hep G2 cells were 14.2 ± 1.31 µM, 5.63 ± 0.38 µM and 4.99 ± 0.47 µM, respectively.
In the case of `COc1ccc(NC(=O)Nc2cccc(CNc3ncnc4cc(OC)c(OCCCCCCN5CCC(CN6CCN(c7ccccn7)CC6)CC5)cc34)c2)cc1` [Compound 8-2l, N-(3-(((7-methoxy-6-((6-(4-((4-(pyridin-2-yl)piperazin-1-yl)methyl)piperidin-1-yl)hexyl)oxy)quinazolin-4-yl)amino)methyl)phenyl)-N′-(4-methoxyphenyl)urea], the IC50 is over 30 µM in the assay on PANC-1 cells; 10.9 ± 0.69 µM in assay [1]; 6.02 ± 0.46 µM in the assay on T24 cells; 6.42 ± 0.69 µM in the assay on HeLa cells; 12 ± 0.94 µM in the assay with UM-UC-3 cells; 13.9 ± 0.71 µM in assay [2]. In addition, the IC50 with MCF-7 cells worked out at 7.29 ± 0.63 µM; in the assay on 143B cells, 6.75 ± 0.41 µM; in the assay on SK-OV-3 cells, 11.7 ± 0.88 µM; with MG-63 cells it was 7.69 ± 0.58 µM; with BxPC-3 cells, 18.9 ± 1.24 µM; in the assay with J82 cells, 7.83 ± 0.69 µM. Also, the figures for the IC50 in the assay on A549 cells, with 5637 cells and with Hep G2 cells were over 30 µM, 9.12 ± 0.59 µM and 4.74 ± 0.62 µM, respectively.
In the case of `COc1cc2ncnc(NCc3cccc(NC(=O)Nc4ccc(F)cc4)c3)c2cc1OCCCCCCN1CCC(CN2CCN(c3ccccn3)CC2)CC1` [Compound 8-2n, N-(3-(((7-methoxy-6-((6-(4-((4-(pyridin-2-yl)piperazin-1-yl)methyl)piperidin-1-yl)hexyl)oxy)quinazolin-4-yl)amino)methyl)phenyl)-N′-(4-fluorophenyl)urea], the concentration for half-maximal inhibition (IC50) with PANC-1 cells turned out to be 18.8 ± 1.43 µM; in [1], 14.4 ± 0.77 µM; in the assay with T24 cells it was 5.82 ± 0.36 µM; in the assay with HeLa cells, 12.7 ± 0.92 µM; in the assay on UM-UC-3 cells, 12.8 ± 0.76 µM; in [2] it was 9.98 ± 0.53 µM. In addition, the IC50 came out at 12.8 ± 0.85 µM with MCF-7 cells; 6.71 ± 0.48 µM in the assay on 143B cells; 5.93 ± 0.61 µM in the assay with SK-OV-3 cells; 8.39 ± 0.66 µM with MG-63 cells; 14.4 ± 1.55 µM in the assay with BxPC-3 cells; 15 ± 1.19 µM in the assay with J82 cells. The results for the IC50 with A549 cells, with 5637 cells and with Hep G2 cells were 15.4 ± 0.83 µM, 8.61 ± 0.73 µM and 8.51 ± 0.67 µM, respectively.
In the case of `COc1cc2ncnc(NCc3cccc(NC(=O)Nc4ccccc4Cl)c3)c2cc1OCCCCCCN1CCC(CN2CCN(c3ccccn3)CC2)CC1` [Compound 8-2o, N-(3-(((7-methoxy-6-((6-(4-((4-(pyridin-2-yl)piperazin-1-yl)methyl)piperidin-1-yl)hexyl)oxy)quinazolin-4-yl)amino)methyl)phenyl)-N′-(2-chlorophenyl)urea], the IC50 is over 30 µM in the assay on PANC-1 cells; 16.2 ± 0.84 µM in assay [1]; 7.93 ± 0.22 µM with T24 cells; 13.7 ± 1.29 µM in the assay with HeLa cells; 15.9 ± 0.95 µM in the assay on UM-UC-3 cells; 12.7 ± 0.89 µM in assay [2]. Also, the IC50 in the assay on MCF-7 cells was 16.2 ± 1.07 µM; in the assay on 143B cells it was 13.8 ± 0.82 µM; with SK-OV-3 cells, 11.9 ± 0.94 µM; in the assay on MG-63 cells, 9.92 ± 0.82 µM; in the assay with BxPC-3 cells, 22.4 ± 1.27 µM; in the assay with J82 cells, 16.7 ± 1.52 µM. Further, the IC50 in the assay with A549 cells is 27.2 ± 2.04 µM; with 5637 cells it was 12.4 ± 0.89 µM; in the assay with Hep G2 cells, 16 ± 0.96 µM.
`COc1cc2ncnc(NCc3cccc(NC(=O)Nc4ccc(Cl)cc4)c3)c2cc1OCCCCCCN1CCC(CN2CCN(c3ccccn3)CC2)CC1` [Compound 8-2q, N-(3-(((7-methoxy-6-((6-(4-((4-(pyridin-2-yl)piperazin-1-yl)methyl)piperidin-1-yl)hexyl)oxy)quinazolin-4-yl)amino)methyl)phenyl)-N′-(4-chlorophenyl)urea]: the IC50 in the assay with PANC-1 cells is 15.2 ± 0.67 µM; in assay [1], 9.49 ± 0.73 µM; in the assay on T24 cells, 6.76 ± 0.38 µM; in the assay on HeLa cells, 7.72 ± 0.34 µM; in the assay with UM-UC-3 cells it was 7.19 ± 0.47 µM; in assay [2] it was 7.36 ± 0.23 µM. For the same molecule, the 50% inhibitory concentration (IC50) amounted to 6.44 ± 0.71 µM in the assay with MCF-7 cells; 7.08 ± 0.85 µM in the assay with 143B cells; 5.62 ± 0.47 µM in the assay on SK-OV-3 cells; 8.61 ± 0.53 µM in the assay on MG-63 cells; 13.2 ± 0.78 µM with BxPC-3 cells; 6.69 ± 0.53 µM with J82 cells. For the same molecule, the figures for the IC50 in the assay on A549 cells, in the assay with 5637 cells and with Hep G2 cells were 13.3 ± 0.86 µM, 4.32 ± 0.33 µM and 10.7 ± 0.98 µM, respectively.
For `COc1cc2ncnc(NCc3cccc(NC(=O)Nc4ccc(Cl)cc4Cl)c3)c2cc1OCCCCCCN1CCC(CN2CCN(c3ccccn3)CC2)CC1` [Compound 8-2r, N-(3-(((7-methoxy-6-((6-(4-((4-(pyridin-2-yl)piperazin-1-yl)methyl)piperidin-1-yl)hexyl)oxy)quinazolin-4-yl)amino)methyl)phenyl)-N′-(2,4-dichlorophenyl)urea], the IC50 with PANC-1 cells stood at 14.6 ± 0.78 µM; in [1] it was 8.41 ± 0.43 µM; in the assay on T24 cells, 5.12 ± 0.39 µM; in the assay on HeLa cells, 7.37 µM; in the assay on UM-UC-3 cells, 11.7 ± 0.96 µM; in [2], 7.72 ± 0.39 µM. Also, the IC50 in the assay on MCF-7 cells stood at 11.4 ± 0.76 µM; with 143B cells it was 8.91 ± 0.77 µM; in the assay with SK-OV-3 cells, 11.3 ± 0.83 µM; in the assay with MG-63 cells it was 7.02 ± 0.58 µM; in the assay on BxPC-3 cells it was 10.3 ± 0.93 µM; in the assay with J82 cells, 4.73 ± 0.38 µM. In addition, the IC50 with A549 cells was determined as 12.3 ± 0.92 µM; in the assay with 5637 cells, 6.29 ± 0.37 µM; in the assay on Hep G2 cells it was 7.02 ± 0.49 µM.
As to `COc1cc2ncnc(NCc3cccc(NC(=O)Nc4c(Cl)cc(Cl)cc4Cl)c3)c2cc1OCCCCCCN1CCC(CN2CCN(c3ccccn3)CC2)CC1` [Compound 8-2s, N-(3-(((7-methoxy-6-((6-(4-((4-(pyridin-2-yl)piperazin-1-yl)methyl)piperidin-1-yl)hexyl)oxy)quinazolin-4-yl)amino)methyl)phenyl)-N′-(2,4,6-trichlorophenyl)urea], the concentration for half-maximal inhibition (IC50) came out at 10.4 ± 0.62 µM with PANC-1 cells; 8.36 ± 1.62 µM in assay [1]; 7.73 ± 0.47 µM in the assay on T24 cells; 7.99 ± 0.68 µM in the assay with HeLa cells; 10 ± 0.73 µM with UM-UC-3 cells; 11.5 ± 0.62 µM in assay [2]. For the same molecule, the concentration for half-maximal inhibition (IC50) in the assay on MCF-7 cells came out at 5.88 ± 0.57 µM; in the assay on 143B cells, 5.94 ± 0.43 µM; in the assay with SK-OV-3 cells, 6.02 ± 0.39 µM; in the assay with MG-63 cells it was 11 ± 0.97 µM; with BxPC-3 cells, 9.72 ± 0.95 µM; with J82 cells it was 4.62 ± 0.33 µM. In addition, the values for the IC50 in the assay with A549 cells, with 5637 cells and in the assay on Hep G2 cells were 7.32 ± 0.85 µM, 4.87 ± 0.29 µM and 4.91 ± 0.55 µM, respectively.

Usually IC50 stands for the midpoint of a concentration-inhibition curve.
